Values joined by “and” are separate entries in the source; they are usually repeats but may differ in a detail not shown here. Equal entries are not always repeated.
Tests used:
[1] = target: Glycogen synthase kinase-3 beta (Homo sapiens, UniProt P49841); assay: TR-FRET Assay
Procedure: (§1) The assay was performed in a white, 384 well, low volume, flat bottom plate (Grenier). […] The kinase activity was quenched with 2 μL of 250 mM EDTA. A 10 μL volume of 40 nM Strepavidin-d2, 2 nM Tb2+-pSer641 antibody in TR-FRET Detection Buffer (Invitrogen) was then added.

[2] = target: Glycogen synthase kinase-3 alpha (Homo sapiens, UniProt P49840); assay: TR-FRET Assay
Procedure: as §1

Glycogen synthase kinase-3 alpha, sequence (P49840 whole entry): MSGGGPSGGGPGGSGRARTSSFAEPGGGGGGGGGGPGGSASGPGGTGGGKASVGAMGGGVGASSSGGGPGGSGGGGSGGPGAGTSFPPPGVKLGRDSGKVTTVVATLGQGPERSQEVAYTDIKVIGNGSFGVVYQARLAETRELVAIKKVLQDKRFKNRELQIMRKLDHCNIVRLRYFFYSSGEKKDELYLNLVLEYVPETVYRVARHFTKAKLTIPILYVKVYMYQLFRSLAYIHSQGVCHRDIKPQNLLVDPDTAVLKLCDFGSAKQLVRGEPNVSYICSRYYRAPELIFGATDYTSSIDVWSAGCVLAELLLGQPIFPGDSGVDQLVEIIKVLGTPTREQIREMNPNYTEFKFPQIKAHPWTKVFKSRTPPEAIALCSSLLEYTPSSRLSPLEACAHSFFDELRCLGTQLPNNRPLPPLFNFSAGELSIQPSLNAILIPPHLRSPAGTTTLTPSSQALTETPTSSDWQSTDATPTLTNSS
Glycogen synthase kinase-3 beta, sequence (P49841 whole entry): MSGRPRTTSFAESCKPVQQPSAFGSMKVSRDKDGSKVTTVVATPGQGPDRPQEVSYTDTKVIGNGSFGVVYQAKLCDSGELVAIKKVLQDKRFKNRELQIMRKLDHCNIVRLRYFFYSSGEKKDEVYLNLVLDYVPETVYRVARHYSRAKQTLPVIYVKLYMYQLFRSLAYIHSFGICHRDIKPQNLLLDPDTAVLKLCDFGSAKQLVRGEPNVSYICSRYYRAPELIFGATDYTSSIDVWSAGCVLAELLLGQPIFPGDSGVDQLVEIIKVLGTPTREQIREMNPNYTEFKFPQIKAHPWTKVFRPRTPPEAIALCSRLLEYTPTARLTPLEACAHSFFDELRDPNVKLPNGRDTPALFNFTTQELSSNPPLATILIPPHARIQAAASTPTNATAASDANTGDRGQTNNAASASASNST

IC50 [1]	IC50 [2]	SMILES
100 to 1000 nM	< 100 nM	CCC1(c2cccc(OC(C)C)c2)C2=CN=NC2NC2=C1C(=O)CC(C)(C)C2 (stereo not drawn) [US20250313563, Compound 801448]
< 100 nM	< 100 nM	CCC1(c2cccc(C(F)(F)F)c2)C2=C(CC(C)(C)CC2=O)NC2N=NC(Br)=C21 (stereo not drawn) [US20250313563, Compound 802358]
100 to 1000 nM	1000 to 5000 nM	CC1(C)CC(=O)C2=C(C1)NC1N=NC(C(F)(F)F)=C1[C@@]21CCc2c(F)cccc21 (stereo partly drawn) [US20250313563, Compound 806568]
< 100 nM	< 100 nM	CC1(C)CC(=O)C2=C(C1)NC1N=NC(C(F)(F)F)=C1[C@]21CCc2c(F)cccc21 (stereo partly drawn) [US20250313563, Compound 806569]
100 to 1000 nM	< 100 nM	Cc1cccc2c1CCC21C2=C(N=NC2)NC2=C1C(=O)CC(C)(C)C2 (stereo not drawn) [US20250313563, Compound 806603]
> 5000 nM	> 1670 nM	CCC1(c2cccc(N3CCNCC3)c2)C2=CN=NC2NC2=C1C(=O)CC(C)(C)C2 (stereo not drawn) [US20250313563, Compound 806604]
> 5000 nM	1000 to 5000 nM	CC1(C)CC(=O)C2=C(C1)NC1=C(CN=N1)C2(C)c1cc(Cl)ccc1Cl (stereo not drawn) [US20250313563, Compound 806605]
> 1670 nM	100 to 1000 nM	CC[C@@]1(c2ccccc2)C2=CN=NC2NC2=C1C(=O)C[C@H](C(F)(F)F)C2 (stereo partly drawn) [US20250313563, Compound 806608]
> 1670 nM	100 to 1000 nM	CC[C@@]1(c2ccccc2)C2=CN=NC2NC2=C1C(=O)C[C@@H](C(F)(F)F)C2 (stereo partly drawn) [US20250313563, Compound 806609]
> 5000 nM	> 1670 nM	CC1(C)CC(=O)C2=C(C1)NC1N=NC=C1[C@@]21CCc2c(F)cccc21 (stereo partly drawn) [US20250313563, Compound 806632]
100 to 1000 nM	< 100 nM	CC1(C)CC(=O)C2=C(C1)NC1=C(CN=N1)[C@]21CCc2c(F)cccc21 [US20250313563, Compound 806633]
100 to 1000 nM	< 100 nM	CCC1(c2cccc(-c3ccncn3)c2)C2=CN=NC2NC2=C1C(=O)CC(C)(C)C2 (stereo not drawn) [US20250313563, Compound 806637]
1000 to 5000 nM	100 to 1000 nM	CC1(C)CC(=O)C2=C(C1)NC1N=NC(Br)=C1[C@@]21CCc2c(F)cccc21 (stereo partly drawn) [US20250313563, Compound 806938]
< 100 nM	< 100 nM	CC1(C)CC(=O)C2=C(C1)NC1N=NC(Br)=C1[C@]21CCc2c(F)cccc21 (stereo partly drawn) [US20250313563, Compound 806939]
> 5000 nM	> 5000 nM	CCC1(c2ccccc2)C2=C(N=NC2)NC(C)=C1C(C)=O (stereo not drawn) [US20250313563, Compound 806940]
< 100 nM	< 100 nM	CC[C@]1(c2cccc(N(C)C(C)=O)c2)C2=CN=NC2NC2=C1C(=O)CC(C)(C)C2 (stereo partly drawn) [US20250313563, Compound 810358]
> 5000 nM	> 5000 nM	CC[C@@]1(c2cccc(N(C)C(C)=O)c2)C2=CN=NC2NC2=C1C(=O)CC(C)(C)C2 (stereo partly drawn) [US20250313563, Compound 810359]
100 to 1000 nM	100 to 1000 nM	CC[C@@]1(c2cccc(N3CCOCC3)c2)C2=CN=NC2NC2=C1C(=O)CC(C)(C)C2 (stereo partly drawn) [US20250313563, Compound 810363]
> 5000 nM	> 5000 nM	CC[C@]1(c2cccc(N3CCOCC3)c2)C2=CN=NC2NC2=C1C(=O)CC(C)(C)C2 (stereo partly drawn) [US20250313563, Compound 810364]
< 100 nM and 100 to 1000 nM	< 100 nM	CC[C@]1(c2cccc(Br)c2)C2=C(CC(C)(C)CC2=O)NC2N=NC(C(F)(F)F)=C21 (stereo partly drawn) [US20250313563, Compound 810366]
< 100 nM	< 100 nM	CC[C@@]1(c2cccc(C(F)(F)F)c2)C2=C(CC(C)(C)CC2=O)NC2N=NC(C)=C21 (stereo partly drawn) [US20250313563, Compound 810367]
> 1670 nM	100 to 1000 nM	CC[C@]1(c2cccc(C(F)(F)F)c2)C2=C(CC(C)(C)CC2=O)NC2N=NC(C)=C21 (stereo partly drawn) [US20250313563, Compound 810368]
100 to 1000 nM	< 100 nM	CC[C@@]1(c2cccc(N3CCCCC3)c2)C2=CN=NC2NC2=C1C(=O)CC(C)(C)C2 (stereo partly drawn) [US20250313563, Compound 810369]
> 5000 nM	> 5000 nM	CC[C@]1(c2cccc(N3CCCCC3)c2)C2=CN=NC2NC2=C1C(=O)CC(C)(C)C2 (stereo partly drawn) [US20250313563, Compound 810371]
< 100 nM and 1000 to 5000 nM	< 100 nM and 100 to 1000 nM	CC[C@]1(c2cccc(C(C)C)c2)C2=CN=NC2NC2=C1C(=O)CC(C)(C)C2 (stereo partly drawn) [US20250313563, Compound 810373]
> 5000 nM	1000 to 5000 nM	CC[C@@]1(c2cccc(C(C)C)c2)C2=CN=NC2NC2=C1C(=O)CC(C)(C)C2 (stereo partly drawn) [US20250313563, Compound 810375]
100 to 1000 nM	< 100 nM	CC1(C)CC(=O)C2=C(C1)NC1=C(CN=N1)C2(C)c1cc(C(F)(F)F)ccc1F (stereo not drawn) [US20250313563, Compound 810376]

IC50 [1]	IC50 [2]	SMILES
1000 to 5000 nM	100 to 1000 nM	CC1(C)CC(=O)C2=C(C1)NC1=C(CN=N1)C2(C)c1cc(Cl)ccc1F (stereo not drawn) [US20250313563, Compound 810377]
> 5000 nM	> 1670 nM	CCC1(c2cccc(N3CCN(C)CC3)c2)C2=CN=NC2NC2=C1C(=O)CC(C)(C)C2 (stereo not drawn) [US20250313563, Compound 810379]
< 100 nM and 1000 to 5000 nM	< 100 nM and 100 to 1000 nM	CC[C@]1(c2cccc(C(F)(F)F)c2)C2=CN=NC2NC2=C1C(=O)C[C@H](C)C2 (stereo partly drawn) [US20250313563, Compound 810450]
1000 to 5000 nM	100 to 1000 nM	CC[C@@]1(c2cccc(C(F)(F)F)c2)C2=CN=NC2NC2=C1C(=O)C[C@H](C)C2 (stereo partly drawn) [US20250313563, Compound 810452]
> 5000 nM	1000 to 5000 nM	CC1(C)CC(=O)C2=C(C1)NC1=NN=C(Br)C1C21CCNc2ccccc21 (stereo not drawn) [US20250313563, Compound 810460]
1000 to 5000 nM	1000 to 5000 nM	CC[C@@]1(c2cccc(C(F)(F)F)c2)C2=C(CC(C)(C)CC2=O)NC2N=NC(Br)=C21 (stereo partly drawn) [US20250313563, Compound 810464]
> 5000 nM	> 5000 nM	CC[C@]1(c2cccc(Br)c2)C2=CN=NC2NC2=C1C(=O)C[C@@H](C)C2 (stereo partly drawn) [US20250313563, Compound 810484]
> 5000 nM	> 5000 nM	CC[C@@]1(c2cccc(Br)c2)C2=CN=NC2NC2=C1C(=O)C[C@@H](C)C2 (stereo partly drawn) [US20250313563, Compound 810485]
100 to 1000 nM	< 100 nM	CC[C@]1(c2cccc(Br)c2)C2=CN=NC2NC2=C1C(=O)C[C@H](C)C2 (stereo partly drawn) [US20250313563, Compound 810486]
100 to 1000 nM	< 100 nM	CC[C@@]1(c2cccc(Br)c2)C2=CN=NC2NC2=C1C(=O)C[C@H](C)C2 (stereo partly drawn) [US20250313563, Compound 810487]
100 to 1000 nM	< 100 nM	CC[C@]1(c2cccc(-c3ccncn3)c2)C2=CN=NC2NC2=C1C(=O)CC(C)(C)C2 (stereo partly drawn) [US20250313563, Compound 810488]
> 5000 nM	1000 to 5000 nM	CC[C@@]1(c2cccc(-c3ccncn3)c2)C2=CN=NC2NC2=C1C(=O)CC(C)(C)C2 (stereo partly drawn) [US20250313563, Compound 810489]
< 100 nM	100 to 1000 nM	CC(C)(C)CC1=C2C(N=N1)NC1=C(C(=O)CC(C)(C)C1)C21CCCc2ccccc21 (stereo not drawn) [US20250313563, Compound 810495]
> 5000 nM	1000 to 5000 nM	CCC1(CC)C2=C(N=NC2)NC2=C1C(=O)CC(C)(C)C2 [US20250313563, Compound 810505]
< 100 nM	< 100 nM	CCC1(c2cccc(N3CCCC3)c2)C2=C(CC(C)(C)CC2=O)NC2N=NC(C(F)(F)F)=C21 (stereo not drawn) [US20250313563, Compound 810506]
< 100 nM	< 100 nM	CCC1(c2cccc(N3CCOCC3)c2)C2=C(CC(C)(C)CC2=O)NC2N=NC(C(F)(F)F)=C21 (stereo not drawn) [US20250313563, Compound 810507]
100 to 1000 nM	< 100 nM	CCC1(c2cccc(SC)c2)C2=CN=NC2NC2=C1C(=O)CC(C)(C)C2 (stereo not drawn) [US20250313563, Compound 810508]
> 5000 nM	> 5000 nM	CC[C@]1(c2cccc(N3CCCC3)c2)C2=CN=NC2NC2=C1C(=O)CC(C)(C)C2 (stereo partly drawn) [US20250313563, Compound 810509]
100 to 1000 nM	< 100 nM	CC[C@@]1(c2cccc(N3CCCC3)c2)C2=CN=NC2NC2=C1C(=O)CC(C)(C)C2 (stereo partly drawn) [US20250313563, Compound 810510]
100 to 1000 nM	100 to 1000 nM	CC1(C)CC(=O)C2=C(C1)NC1N=NC(CC(F)(F)F)=C1C21CCc2c(F)cccc21 (stereo not drawn) [US20250313563, Compound 810590]
100 to 1000 nM	100 to 1000 nM	CC1(C)CC(=O)C2=C(C1)NC1N=NC(C3(C(F)(F)F)CC3)=C1C21CCc2c(F)cccc21 (stereo not drawn) [US20250313563, Compound 810591]
100 to 1000 nM	100 to 1000 nM	CCC1(c2ccccc2)C2=C(N=NC2)NC2=C1C(=O)CC1(CCC1)C2 (stereo not drawn) [US20250313563, Compound 811555]
< 100 nM	< 100 nM	CC1N=NC2=C1C(C)(c1cccc(C(F)(F)F)c1)C1=C(CC(C)(C)CC1=O)N2 (stereo not drawn) [US20250313563, Compound 811556]
< 100 nM and 1000 to 5000 nM	< 100 nM and 100 to 1000 nM	CC[C@@]1(c2cccc(C3CC3)c2)C2=CN=NC2NC2=C1C(=O)CC(C)(C)C2 (stereo partly drawn) [US20250313563, Compound 811557]
> 5000 nM	1000 to 5000 nM	CC[C@@]1(c2cccc(C3CC3)c2)C2=CN=NC2NC2=C1C(=O)CC(C)(C)C2 (stereo partly drawn) [US20250313563, Compound 811558]
> 5000 nM	1000 to 5000 nM	CC[C@]1(c2cccc(OC)c2)C2=CN=NC2NC2=C1C(=O)CC(C)(C)C2 (stereo partly drawn) [US20250313563, Compound 811561]
< 100 nM	< 100 nM	CC[C@]1(c2cccc(OC(C)C)c2)C2=CN=NC2NC2=C1C(=O)CC(C)(C)C2 (stereo partly drawn) [US20250313563, Compound 811564]
